Test results taken from ChEMBL document CHEMBL1201862, “PubChem BioAssay data set” (2004).
Calls of active or inactive are those of the source.

What was measured:
[1] = molecular target: T1, Sentrin-specific protease 8 (Homo sapiens, UniProt Q96LD8); assay type: functional
T1 sequence (Q96LD8 whole entry): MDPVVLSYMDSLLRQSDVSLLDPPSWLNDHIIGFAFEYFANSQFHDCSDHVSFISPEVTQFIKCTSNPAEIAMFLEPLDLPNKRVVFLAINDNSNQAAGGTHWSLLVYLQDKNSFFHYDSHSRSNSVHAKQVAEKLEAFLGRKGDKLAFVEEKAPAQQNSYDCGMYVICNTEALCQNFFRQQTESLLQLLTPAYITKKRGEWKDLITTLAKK

[2] = molecular target: T1, Sentrin-specific protease 8; assay type: functional; remark: listed apart in the source
cells = assay type: functional
[3] = molecular target: G-protein coupled receptor 55 (Homo sapiens, UniProt Q9Y2T6); test: inhibition of LPI-stimulated GPR55 beta-arrestin translocation – imaging, U2OS, beta-arrestin-GFP, LPI agonist, primary screen (AID 2013); assay type: functional;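 also: antagonist potency measured as reduced agonist-driven arrestin aggregation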
[4] = blockade of melanocortin 4 receptor signaling – cell-based, plate reader, cherry pick, counter-screen for LGR2 antagonist project, dose response (AID 743444); assay type: functional;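 also: transfected HEK 293 cells stimulated with alpha-MSH peptide; potency of inhibitors of the alpha-MSH evoked signal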
[5] = A549 cell cytotoxicity, dose response, cytotoxicity control, plate reader, cherry-pick, antagonist series (AID 743412); assay type: functional, cell-based
[6] = blockers of bursicon-stimulated LGR2 cAMP reporter – cell-based, HEK293, CRE-luciferase reporter, cherry pick, set 2, dose response (AID 743343); assay type: functional;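 also: transfected cells were stimulated with diluted bursicon conditioned medium after compound addition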
[7] = viability loss in HEK293 cells – cell-based, plate reader, cherry-picked samples, cytotoxicity control, dose response (AID 743446); assay type: functional
Fatty acid synthase [8] = molecular target: T2, Fatty acid synthase (Homo sapiens, UniProt P49327); test: inhibition of human FAS-TE enzyme activity – biochemical, endpoint fluorescence intensity, uHTS hits, dose response (AID 624327); assay type: functional;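 also: fluorescence from hydrolysis of an O-methyl fluorescein acyl ester substrate by the enzyme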
Fatty acid synthase [9] = molecular target: T2, Fatty acid synthase; test: inhibition of human FAS-TE enzyme activity – biochemical, kinetic fluorescence intensity, dose response (AID 624326); assay type: functional;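 also: rate of fluorescence rise from hydrolysis of a fluorogenic O-methyl fluorescein ester substrate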
Phospholipase A2 = Phospholipase A2 (Homo sapiens, UniProt P04054); assay type: functional;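 also: confirmatory dose-response counterscreen on phospholipase A2, testing hits that came from an ultra-high-throughput screen for ATG4B inhibitors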
Cysteine protease ATG4B = molecular target: T3, Cysteine protease ATG4B (Homo sapiens, UniProt Q9Y4P1); assay type: functional;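 also: Fluorescence-based dose-response confirmation assay measuring inhibition of ATG4B activity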
T3 sequence (Q9Y4P1 whole entry): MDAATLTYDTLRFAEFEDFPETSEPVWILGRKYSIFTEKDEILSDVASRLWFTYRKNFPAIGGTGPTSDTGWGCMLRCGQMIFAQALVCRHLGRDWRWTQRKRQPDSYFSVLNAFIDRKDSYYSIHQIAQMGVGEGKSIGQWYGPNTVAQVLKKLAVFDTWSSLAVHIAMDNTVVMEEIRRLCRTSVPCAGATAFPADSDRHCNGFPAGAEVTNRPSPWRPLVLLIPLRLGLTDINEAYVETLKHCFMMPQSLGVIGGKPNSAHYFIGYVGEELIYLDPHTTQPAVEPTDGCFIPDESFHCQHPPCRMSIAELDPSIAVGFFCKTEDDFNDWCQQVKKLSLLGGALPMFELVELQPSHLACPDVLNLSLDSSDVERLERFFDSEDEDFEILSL

[10] = molecular target: T4, Ubiquitin-conjugating enzyme E2 N (Homo sapiens, UniProt P61088); assay type: functional;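 also: Dose-response confirmation in a TR-FRET assay detecting UBC13-driven polyubiquitin chain formation, inhibition measured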
T4 sequence (P61088 whole entry): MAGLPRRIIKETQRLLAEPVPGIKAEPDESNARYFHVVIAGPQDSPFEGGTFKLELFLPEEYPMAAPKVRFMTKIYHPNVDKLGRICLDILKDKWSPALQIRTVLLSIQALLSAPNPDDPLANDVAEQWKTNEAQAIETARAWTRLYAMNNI

[11] = HEK-293T viability loss after treatment – luminescence, T-cell screen hits, cytotoxicity control for TCR NF-kB inhibitor project, dose response (AID 489026); assay type: functional, cell-based;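 also: cells exposed to compound about 14 hours before the viability readout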
Cytochrome P450 2C9 = Cytochrome P450 2C9 (Homo sapiens, UniProt P11712)
Cytochrome P450 1A2 = molecular target: T5, Cytochrome P450 1A2 (Homo sapiens, UniProt P05177);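 also: PubChem cytochrome P450 panel assay, CYP1A2 panel member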
T5 sequence (P05177 whole entry): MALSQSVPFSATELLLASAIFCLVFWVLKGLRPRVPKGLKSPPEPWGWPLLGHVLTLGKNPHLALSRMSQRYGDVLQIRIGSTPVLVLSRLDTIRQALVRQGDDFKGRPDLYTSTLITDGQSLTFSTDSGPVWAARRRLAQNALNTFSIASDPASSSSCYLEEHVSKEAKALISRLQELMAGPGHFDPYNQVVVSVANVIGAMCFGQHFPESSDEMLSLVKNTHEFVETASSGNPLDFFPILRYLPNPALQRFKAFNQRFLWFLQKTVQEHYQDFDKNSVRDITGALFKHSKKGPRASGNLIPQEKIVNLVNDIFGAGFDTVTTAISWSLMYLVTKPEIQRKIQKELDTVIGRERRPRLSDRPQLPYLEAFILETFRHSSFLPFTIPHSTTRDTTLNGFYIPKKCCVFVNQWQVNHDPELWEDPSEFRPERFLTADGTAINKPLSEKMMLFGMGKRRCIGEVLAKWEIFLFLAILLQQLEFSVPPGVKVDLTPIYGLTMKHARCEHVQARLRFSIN

Cytochrome P450 2D6 = Cytochrome P450 2D6 (Homo sapiens, UniProt P10635);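 also: CYP2D6 member of a cytochrome P450 panel assay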
SN12K1 = test: cells; assay type: functional; conditions: Homo sapiens
P388/ADR = test: cells; assay type: functional; conditions: Mus musculus
[12] = molecular target: T6, Carboxy-terminal domain RNA polymerase II polypeptide A small phosphatase 1 (Homo sapiens, UniProt Q9GZU7); test: CTDSP1 inhibitors, concentration-response, biochemical, absorbance readout, ultra-high-throughput screen actives (AID 540297); assay type: functional
T6 sequence (Q9GZU7 whole entry): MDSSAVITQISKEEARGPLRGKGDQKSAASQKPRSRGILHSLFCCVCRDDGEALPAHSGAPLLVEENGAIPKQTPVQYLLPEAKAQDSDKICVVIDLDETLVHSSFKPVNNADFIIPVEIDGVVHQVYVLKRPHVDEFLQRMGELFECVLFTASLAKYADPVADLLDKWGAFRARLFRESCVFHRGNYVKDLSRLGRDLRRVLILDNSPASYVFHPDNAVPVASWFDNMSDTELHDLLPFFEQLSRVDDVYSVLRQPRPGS

[13] = molecular target: T7, Polyadenylate-binding protein 1 (Homo sapiens, UniProt P11940); test: MLLE domain peptide-binding blockers, IC50 – biochemical, fluorescence polarization, FITC-PAM2 peptide, dose response (AID 602259); assay type: functional; conditions: read-out: IC50_Mean
[14] = molecular target: T7, Polyadenylate-binding protein 1; test: MLLE binding blockers, Cy5 peptide tracer – biochemical, fluorescence polarization, Cy5-PAM2 peptide, secondary, miRNA deadenylation inhibitor project, dose response (AID 602260); assay type: functional; conditions: read-out: IC50_Mean
Cytochrome P450 3A4 = Cytochrome P450 3A4 (Homo sapiens, UniProt P08684);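 also: CYP3A4 tested as one member of a cytochrome P450 panel screen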
Cytochrome P450 2C19 = Cytochrome P450 2C19 (Homo sapiens, UniProt P33261); test: Cytochrome panel assay with activity outcomes. Panel member name: p450-cyp2c19 Compounds with AC50 equal or less than 10 uM are considered active; assay type: functional; conditions: read-out: AC50
[15] = HIV-1 AD8 envelope cell-cell fusion blockers – cherry-pick, dose response (AID 652062); assay type: functional, cell-based;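 also: luciferase signal from cell-cell fusion driven by HIV-1 clade B AD8 Env; potency is for inhibitors of fusion seen as a drop in luminescence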
[16] = blockers of HIV-1 envelope-mediated cell-cell fusion – cherry-pick, dose response (AID 652057); assay type: functional, cell-based
[17] = blockers of HIV-1 ZM109 envelope-driven cell-cell fusion – HeLa effector, CEM target cells, luciferase, cherry-pick, dose response (AID 652058); assay type: functional, cell-based;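 also: luciferase signal from HIV-1 Env mediated cell-cell fusion of effector and target cells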

G-protein coupled receptor 55, sequence (Q9Y2T6 whole entry): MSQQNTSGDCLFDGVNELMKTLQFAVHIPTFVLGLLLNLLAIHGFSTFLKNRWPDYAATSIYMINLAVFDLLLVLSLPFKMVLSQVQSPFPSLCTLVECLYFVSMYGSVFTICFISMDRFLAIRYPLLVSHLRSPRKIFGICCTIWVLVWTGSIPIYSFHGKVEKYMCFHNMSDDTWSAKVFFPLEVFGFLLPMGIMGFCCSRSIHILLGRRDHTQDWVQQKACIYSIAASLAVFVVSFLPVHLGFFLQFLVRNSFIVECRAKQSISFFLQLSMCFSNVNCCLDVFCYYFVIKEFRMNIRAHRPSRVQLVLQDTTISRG
T2 sequence (P49327 whole entry): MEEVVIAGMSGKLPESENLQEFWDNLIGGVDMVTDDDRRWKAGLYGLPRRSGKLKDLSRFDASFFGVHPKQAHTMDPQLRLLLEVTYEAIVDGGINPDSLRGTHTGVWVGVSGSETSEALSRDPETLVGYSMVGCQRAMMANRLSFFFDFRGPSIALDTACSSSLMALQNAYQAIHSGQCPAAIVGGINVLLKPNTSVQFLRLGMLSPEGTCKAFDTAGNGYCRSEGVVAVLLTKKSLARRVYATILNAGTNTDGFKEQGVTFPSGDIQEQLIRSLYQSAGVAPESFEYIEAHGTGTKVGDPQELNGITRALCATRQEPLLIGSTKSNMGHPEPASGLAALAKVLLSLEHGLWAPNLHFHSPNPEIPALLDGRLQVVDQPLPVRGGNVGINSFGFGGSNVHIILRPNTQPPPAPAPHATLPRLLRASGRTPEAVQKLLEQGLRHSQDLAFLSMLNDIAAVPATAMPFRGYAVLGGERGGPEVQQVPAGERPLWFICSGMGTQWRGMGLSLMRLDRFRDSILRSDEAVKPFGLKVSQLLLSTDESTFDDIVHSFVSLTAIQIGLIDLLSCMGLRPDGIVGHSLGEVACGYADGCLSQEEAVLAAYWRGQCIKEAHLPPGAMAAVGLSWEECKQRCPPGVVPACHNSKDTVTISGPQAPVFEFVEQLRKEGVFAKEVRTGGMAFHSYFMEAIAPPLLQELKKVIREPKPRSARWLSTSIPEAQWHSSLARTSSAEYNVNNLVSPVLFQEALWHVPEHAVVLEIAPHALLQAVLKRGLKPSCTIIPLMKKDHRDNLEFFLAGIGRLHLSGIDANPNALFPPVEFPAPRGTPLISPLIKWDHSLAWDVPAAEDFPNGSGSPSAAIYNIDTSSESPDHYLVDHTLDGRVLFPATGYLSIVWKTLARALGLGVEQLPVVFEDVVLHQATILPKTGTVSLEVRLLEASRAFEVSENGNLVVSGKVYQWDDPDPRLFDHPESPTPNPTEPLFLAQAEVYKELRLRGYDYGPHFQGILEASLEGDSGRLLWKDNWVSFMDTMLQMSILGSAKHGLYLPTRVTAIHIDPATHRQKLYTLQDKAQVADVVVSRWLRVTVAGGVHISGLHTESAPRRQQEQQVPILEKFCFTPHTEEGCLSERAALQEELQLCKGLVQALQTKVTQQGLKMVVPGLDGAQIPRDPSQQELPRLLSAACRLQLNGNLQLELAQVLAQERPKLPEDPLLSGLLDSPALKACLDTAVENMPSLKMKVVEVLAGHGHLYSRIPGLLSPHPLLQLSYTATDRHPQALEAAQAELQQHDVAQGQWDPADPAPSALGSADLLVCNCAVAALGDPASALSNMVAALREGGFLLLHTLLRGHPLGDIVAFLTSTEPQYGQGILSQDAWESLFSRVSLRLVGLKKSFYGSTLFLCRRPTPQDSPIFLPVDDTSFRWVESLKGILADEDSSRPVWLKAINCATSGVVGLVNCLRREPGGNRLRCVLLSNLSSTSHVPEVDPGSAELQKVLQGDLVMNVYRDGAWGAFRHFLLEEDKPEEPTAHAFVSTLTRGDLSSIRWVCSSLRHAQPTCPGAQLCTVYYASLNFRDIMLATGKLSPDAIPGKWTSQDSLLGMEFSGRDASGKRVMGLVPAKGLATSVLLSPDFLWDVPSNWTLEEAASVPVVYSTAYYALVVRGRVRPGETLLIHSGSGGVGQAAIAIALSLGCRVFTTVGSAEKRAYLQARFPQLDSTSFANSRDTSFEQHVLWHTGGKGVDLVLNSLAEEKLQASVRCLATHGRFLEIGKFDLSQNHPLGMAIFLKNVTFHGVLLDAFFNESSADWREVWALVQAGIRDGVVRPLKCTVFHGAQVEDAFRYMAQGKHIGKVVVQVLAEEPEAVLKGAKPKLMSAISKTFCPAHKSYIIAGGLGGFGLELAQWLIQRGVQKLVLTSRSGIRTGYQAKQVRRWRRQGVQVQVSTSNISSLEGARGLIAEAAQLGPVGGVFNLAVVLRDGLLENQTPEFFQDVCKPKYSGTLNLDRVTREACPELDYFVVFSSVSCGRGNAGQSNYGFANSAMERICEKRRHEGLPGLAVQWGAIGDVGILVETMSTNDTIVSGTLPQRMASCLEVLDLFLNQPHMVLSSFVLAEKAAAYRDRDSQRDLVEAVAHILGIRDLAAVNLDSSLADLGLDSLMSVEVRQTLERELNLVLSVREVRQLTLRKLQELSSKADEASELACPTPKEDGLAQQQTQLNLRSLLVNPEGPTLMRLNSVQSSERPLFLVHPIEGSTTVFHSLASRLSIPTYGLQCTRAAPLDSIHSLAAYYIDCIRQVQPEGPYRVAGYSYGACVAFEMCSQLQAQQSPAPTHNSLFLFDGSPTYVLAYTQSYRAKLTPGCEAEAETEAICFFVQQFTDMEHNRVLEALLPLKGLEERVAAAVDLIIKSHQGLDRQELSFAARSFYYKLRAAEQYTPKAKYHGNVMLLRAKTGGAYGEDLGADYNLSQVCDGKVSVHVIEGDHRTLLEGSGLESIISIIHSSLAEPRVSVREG
Phospholipase A2, sequence (P04054 whole entry): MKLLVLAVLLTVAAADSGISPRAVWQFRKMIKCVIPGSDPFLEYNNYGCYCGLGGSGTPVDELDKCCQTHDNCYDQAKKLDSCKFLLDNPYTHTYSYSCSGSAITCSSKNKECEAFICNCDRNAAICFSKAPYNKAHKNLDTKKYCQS
T7 sequence (P11940 whole entry, the tested form may be a part): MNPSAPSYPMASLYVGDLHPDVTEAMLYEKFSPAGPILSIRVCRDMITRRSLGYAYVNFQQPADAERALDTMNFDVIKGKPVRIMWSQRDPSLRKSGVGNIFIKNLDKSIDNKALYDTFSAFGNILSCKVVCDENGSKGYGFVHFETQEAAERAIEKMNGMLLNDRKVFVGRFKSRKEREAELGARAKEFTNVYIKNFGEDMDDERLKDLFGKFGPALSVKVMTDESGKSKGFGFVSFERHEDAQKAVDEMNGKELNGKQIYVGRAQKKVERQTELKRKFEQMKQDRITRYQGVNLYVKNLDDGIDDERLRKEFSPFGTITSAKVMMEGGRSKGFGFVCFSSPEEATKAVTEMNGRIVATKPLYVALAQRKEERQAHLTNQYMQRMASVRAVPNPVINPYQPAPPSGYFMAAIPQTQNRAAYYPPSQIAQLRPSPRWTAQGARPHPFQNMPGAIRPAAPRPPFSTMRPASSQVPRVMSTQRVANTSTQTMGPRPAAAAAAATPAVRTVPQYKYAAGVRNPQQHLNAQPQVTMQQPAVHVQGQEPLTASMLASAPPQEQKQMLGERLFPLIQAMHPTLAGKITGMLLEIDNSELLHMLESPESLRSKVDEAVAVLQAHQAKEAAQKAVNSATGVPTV
Cytochrome P450 2C9, sequence (P11712 whole entry): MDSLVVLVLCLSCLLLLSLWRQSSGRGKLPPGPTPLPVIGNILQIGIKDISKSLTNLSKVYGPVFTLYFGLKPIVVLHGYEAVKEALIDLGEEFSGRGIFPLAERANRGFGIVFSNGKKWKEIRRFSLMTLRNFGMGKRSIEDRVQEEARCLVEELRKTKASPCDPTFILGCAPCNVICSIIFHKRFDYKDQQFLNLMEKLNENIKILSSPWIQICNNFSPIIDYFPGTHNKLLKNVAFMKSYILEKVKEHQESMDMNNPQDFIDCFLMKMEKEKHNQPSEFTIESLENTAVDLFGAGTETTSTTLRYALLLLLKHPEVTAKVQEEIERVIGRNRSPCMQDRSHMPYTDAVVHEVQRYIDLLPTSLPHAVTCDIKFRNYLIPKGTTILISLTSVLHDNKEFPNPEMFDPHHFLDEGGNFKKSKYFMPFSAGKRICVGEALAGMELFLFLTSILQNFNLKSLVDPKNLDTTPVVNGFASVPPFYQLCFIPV
Cytochrome P450 2D6, sequence (P10635 whole entry): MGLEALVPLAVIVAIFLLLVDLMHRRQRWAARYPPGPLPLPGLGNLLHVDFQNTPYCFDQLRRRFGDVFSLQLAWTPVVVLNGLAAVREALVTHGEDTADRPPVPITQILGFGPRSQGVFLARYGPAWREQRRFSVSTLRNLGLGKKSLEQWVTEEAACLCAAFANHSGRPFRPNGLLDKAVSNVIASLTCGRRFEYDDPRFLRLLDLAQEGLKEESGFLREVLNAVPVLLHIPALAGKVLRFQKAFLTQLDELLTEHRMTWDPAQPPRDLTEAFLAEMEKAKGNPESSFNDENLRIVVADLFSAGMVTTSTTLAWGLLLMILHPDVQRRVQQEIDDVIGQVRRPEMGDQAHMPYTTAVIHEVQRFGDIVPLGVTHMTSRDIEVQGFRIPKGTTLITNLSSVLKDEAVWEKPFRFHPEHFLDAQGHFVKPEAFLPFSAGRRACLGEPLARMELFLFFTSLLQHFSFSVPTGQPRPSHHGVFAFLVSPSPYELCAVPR

COC/C=C/C1=CC2=CC(=O)C(C)(OC(=O)c3cnc4ccccc4n3)C(=O)C2=CN1CCOC (configuration not stated)
IC50 [1]: 11.5 µM (active)
IC50 [2]: 13.1 µM (active)

COc1ccc(C(C)=O)cc1COC(=O)c1ccc2ccccc2n1
IC50 (cells): 10.4 µM (active)

CC(C)(C)C1=CC(O)(c2ccccc2)C=C(C(C)(C)C)C1=O
IC50 [3]: 18.7 µM (inactive)

Cc1ccc(Nc2nc3ccccc3s2)c(C)c1
AC50 [4]: 14.3 µM (active)
AC50 [5]: 37.8 µM (active)
AC50 [6]: 16.1 µM (active)
AC50 [7]: > 52 µM (inactive)

Cc1nc2scc(-c3ccc(Cl)cc3)c2c(=O)o1
IC50 (Fatty acid synthase [8]): 1.32 µM (active)
IC50 (Fatty acid synthase [9]): 2.91 µM (active)

Cc1cccc(-n2c(-c3cccs3)nc3ccccc3c2=O)c1
IC50 (Phospholipase A2): 7.49 µM (active)
IC50 (Cysteine protease ATG4B): 10 µM (active)

COC(=O)C1=C(C)N(Cc2ccccc2)C(NCc2ccc(OC)cc2)=N[C@H]1c1cccc(F)c1
IC50 [10]: > 20 µM (inactive)
IC50 [3]: 1.46 µM (active)

O=[N+]([O-])c1ccc(CN2CC(N3CCC(Cc4ccccc4)CC3)CS2(=O)=O)cc1 (configuration not stated)
IC50 (Fatty acid synthase [8]): 9.92 µM (active)
IC50 (Fatty acid synthase [9]): 6.24 µM (active)

COc1cccc(C2CC(=O)Nc3cc4c(cc32)CCC4)c1 (configuration not stated)
IC50 [11]: > 80 µM (inactive)

CCOC(=O)c1c(N)sc(C(O)(C(F)(F)F)C(F)(F)F)c1-c1ccc(F)cc1
IC50 [3]: 4.92 µM (active)

O=S(=O)(Nc1ccc2c(c1)OCCO2)c1cccc2cccnc12
AC50 (Cytochrome P450 2C9): inconclusive
AC50 (Cytochrome P450 1A2): 5.01 µM (inconclusive)
AC50 (Cytochrome P450 2D6): 39.8 µM (inconclusive)

C=C1C(=O)O[C@@H]2OC3(C)CCC4C(C)CCC1C42OO3 (some centres not stated)
GI50 (SN12K1): 3.66 µM (inactive)
GI50 (P388/ADR): 0.294 µM (active)

C=CCN1C(=O)/C(=C2/Sc3ccccc3N2CCCS(=O)(=O)O)SC1=S.c1ccncc1
IC50 [12]: 5.11 µM (active)
IC50 [13]: > 66 µM (inactive)
IC50 [14]: > 66 µM (inactive)

CCCC(=O)NNC(=O)CCC(=O)NCc1ccccc1
AC50 (Cytochrome P450 2C9): inconclusive
AC50 (Cytochrome P450 3A4): 0.0562 µM (inconclusive)
AC50 (Cytochrome P450 2C19): 39.8 µM (inconclusive)

COc1ccc(NC(=O)Nc2ccc3c(c2)C(=O)N([C@@H](C)CO)C[C@H](C)[C@H](CN(C)S(=O)(=O)c2ccc(Cl)cc2)O3)cc1
AC50 [15]: 5.38 µM (active)
AC50 [16]: 5.71 µM (active)
AC50 [17]: 4.73 µM (active)

CN1C(=O)C(N=Nc2ccccc2C(=O)O)N(C)C1=S (configuration not stated)
IC50 (Phospholipase A2): 10.3 µM (active)
IC50 (Cysteine protease ATG4B): 16.1 µM (active)

COc1cc(=O)n(C)c2c(O)cccc12
IC50 [1]: 11.5 µM (active)
IC50 [2]: > 100 µM (inactive)

O=C(COc1ccccc1[N+](=O)[O-])Nc1cccc(S(=O)(=O)NC2=NCCCCC2)c1
IC50 [12]: 9 µM (active)
